# From US8697727B2, “N-substituted-heterocycloalkyloxybenzamide compounds and methods of use” (Rigel Pharmaceuticals, Inc., priority 2006, dated 2014)
# Test system: AMPK
# Assay: AMPK activation, enzyme-linked immunosorbent assay
# Format: cell-based
# Summary of the method: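 Reported in ranges of less than 1 μM, 1-10 μM, 10-20 μM, 20-50 μM, 50-100 μM, and >100 μM, the values come from a cell-based assay. There, an enzyme-linked immunosorbent assay measured the relative concentration of phosphorylated acetyl-CoA carboxylase as a readout of AMPK activity. The endpoint is the EC50 of each compound for AMPK activation.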
row,EC50 [µM],SMILES
1,< 1,"COC(=O)c1ccc(CN2CCC(NC(=O)c3ccc(OC4CCN(c5ccc(C(F)(F)F)cc5)CC4)c(F)c3)CC2)cc1 [Compound 33, methyl 4-((4-(3-fluoro-4-(1-(4-(trifluoromethyl)phenyl)piperidin-4-yloxy)benzamido)piperidin-1-yl)methyl)benzoate]"
2,< 1,"O=C(NC1CCN(Cc2ccc(F)cc2)CC1)c1ccc(OC2CCN(Cc3ccc(Cl)cc3)CC2)c(Cl)c1 [Compound 66, 3-chloro-4-(1-(4-chlorobenzyl)piperidin-4-yloxy)-N-(1-(4-fluorobenzyl)piperidin-4-yl)benzamide]"
3,< 1,"N#Cc1ccc(N2CCC(Oc3ccc(C(=O)NC4CCN(Cc5ccncc5)CC4)cc3F)CC2)cc1 [Compound 44, 4-(1-(4-cyanophenyl)piperidin-4-yloxy)-3-fluoro-N-(1-(pyridin-4-ylmethyl)piperidin-4-yl)benzamide]"
4,< 1,"O=C(NC1CCN(Cc2ccc(Cl)cc2)CC1)c1ccc(OC2CCN(Cc3ccc(F)c(F)c3)CC2)c(F)c1 [Compound 71, N-(1-(4-chlorobenzyl)piperidin-4-yl)-4-(1-(3,4-difluorobenzyl)piperidin-4-yloxy)-3-fluorobenzamide]"
5,10 to 20,"O=C(NC1CCN(Cc2ccccc2)CC1)c1ccc(OC2CCN(Cc3ccccc3C(F)(F)F)CC2)c(Cl)c1 [Compound 24, N-(1-benzylpiperidin-4-yl)-3-chloro-4-(1-(2-(trifluoromethyl)benzyl)piperidin-4-yloxy)benzamide]"
6,1 to 10,"O=C(NC1CCN(Cc2ccccc2)CC1)c1ccc(OC2CCN(c3cccs3)CC2)c(Cl)c1 [Compound 10, N-(1-benzylpiperidin-4-yl)-3-chloro-4-(1-(thiophen-2-yl)piperidin-4-yloxy)benzamide]"
7,< 1,"O=C(NC1CCN(Cc2ccccc2)CC1)c1ccc(OC2CCN(Cc3cccc(C(F)(F)F)c3)CC2)c(Cl)c1 [Compound 60, N-(1-benzylpiperidin-4-yl)-3-chloro-4-(1-(3-(trifluoromethyl)benzyl)piperidin-4-yloxy)benzamide]"

# Second part, the molecule before the results:
row,SMILES,EC50 [µM]
1,"CC(C)(C)OC(=O)N1CCN(C(=O)c2ccc(OC3CCN(Cc4ccccc4)CC3)cc2)CC1 [Compound 99, tert-butyl 4-(4-(1-benzylpiperidin-4-yloxy)benzoyl)piperazine-1-carboxylate]",1 to 10
2,"N#Cc1ccc(CN2CCC(Oc3ccc(C(=O)NC4CCNCC4)cc3)CC2)cc1 [Compound 79, 4-(1-(4-cyanobenzyl)piperidin-4-yloxy)-N-(piperidin-4-yl)benzamide]",> 100
3,"CC(c1ccccc1)N1CCC(Oc2ccc(C(=O)NC3CCN(Cc4ccccc4)CC3)cc2F)CC1 (stereo not drawn) [Compound 21, N-(1-benzylpiperidin-4-yl)-3-fluoro-4-(1-(1-phenylethyl)piperidin-4-yloxy)benzamide]",1 to 10
4,"O=C(NC1CCN(Cc2ccccc2)CC1)c1cccc(OC2CCN(Cc3ccccc3)CC2)c1 [Compound 13, N-(1-benzylpiperidin-4-yl)-3-(1-benzylpiperidin-4-yloxy)benzamide]",20 to 50
5,"O=C(NC1CCN(C(=O)c2ccc(F)cc2)CC1)c1ccc(OC2CCN(c3ccc(C(F)(F)F)cc3)CC2)c(F)c1 [Compound 31, 3-fluoro-N-(1-(4-fluorobenzoyl)piperidin-4-yl)-4-(1-(4-(trifluoromethyl)phenyl)piperidin-4-yloxy)benzamide]",< 1
6,"O=C(NCCCN1CCOCC1)c1ccc(OC2CCN(Cc3ccc(Cl)cc3)CC2)cc1 [Compound 100, 4-(1-(4-chlorobenzyl)piperidin-4-yloxy)-N-(3-morpholinopropyl)benzamide]",1 to 10
7,"N#Cc1ccc(CN2CCC(Oc3ccc(C(=O)NC4CCN(Cc5ccccn5)CC4)cc3)CC2)cc1 [Compound 85, 4-(1-(4-cyanobenzyl)piperidin-4-yloxy)-N-(1-(pyridin-2-ylmethyl)piperidin-4-yl)benzamide]",< 1
8,"O=C(NC1CCN(Cc2ccccc2)CC1)c1cccc(OC2CCN(c3ccncc3)CC2)c1 [Compound 53, N-(1-benzylpiperidin-4-yl)-3-(1-(pyridin-4-yl)piperidin-4-yloxy)benzamide]",10 to 20
